Measurements as given in patent publication US20250332173A1, “COMPOUNDS AND METHODS FOR MODULATING NUCLEIC ACID SPLICING” (REMIX THERAPEUTICS INC., priority 2021, published 2025).
Where a name gives a salt, the structure may show the parent alone. Read-outs that look alike come from different tables or passages of the source.

Assays:
[1] = test system: HTT mRNA; test: RT-qPCR splicing assay, HTT canonical junction (CJ) and alternative junction (AJ) mRNA; type: cell-based, human; conditions: Homo sapiens; for AC50: increase in HTT alternative junction (AJ) mRNA, read-out: HTT AJ AC50
In short: (§1)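 24 h treatment, 37 °C/5% CO2; A673 or K562; 11-pt 3-fold series, top 10 uM final; DMSO ≤0.25%. Cell lysis with DNase I, then 1-step RT-qPCR. Housekeeping normalization: PPIA (A673), GAPDH or GUSB (K562).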

[2] = test system: MYB mRNA; test: RT-qPCR splicing assay, MYB canonical junction (CJ) and alternative junction (AJ) mRNA; type: cell-based, human; conditions: Homo sapiens; for AC50: increase in MYB alternative junction (AJ) mRNA, read-out: MYB AJ AC50
In short: as §1

[3] = test system: K562 (human chronic myelogenous leukemia) cells; test: Cell Titer Glo 2.0 cell viability assay; type: cell-based; conditions: Homo sapiens, K562, 72 h, K562 cells, 72 hours, Cell Titer Glo 2.0; read-out: K562 GI50
[4] = test system: Target C; test: HiBiT protein abundance assay, Target C (Promega Nano-Glo HiBiT Lytic Detection System, knock-in K562 cell line); type: cell-based, human; conditions: Homo sapiens, K562, 24 h, HiBiT K562 cell line, 24 hours, top dose 10 μM; read-out: Effect on protein abundance, Target C (IC50 category)
In short: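 Knock-in K562 cells carrying HiBiT-tagged Target C, 10,000 per well, treated 24 h at 37 °C with 10-point threefold dilutions (top 10 μM final, ≤0.25% DMSO). Lytic HiBiT luminescence read; response normalised to unmodified K562 and DMSO controls, four-parameter fit interpolated at 50% for IC50.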

[5] = decrease in HTT canonical junction (CJ) mRNA, RT-qPCR, read-out: HTT CJ IC50
[6] = Table 5 panel, canonical junction qPCR, compound concentration having 50% response in CJ decrease, read-out: HTT IC50 (decrease in CJ mRNA levels)
[7] = Table 5 panel, canonical junction qPCR, compound concentration having 50% response in CJ decrease, read-out: MYB IC50 (decrease in CJ mRNA levels)
[8] = decrease in MYB canonical junction (CJ) mRNA, RT-qPCR, read-out: MYB CJ IC50

Row | IC50 [1, 5] [nM] | IC50 [1, 6] [nM] | IC50 [2, 7] [nM] | IC50 [2, 8] [nM] | GI50 [3] [nM] | IC50 [4] [nM] | SMILES | AC50 ([1]; RT-qPCR) [nM] | AC50 ([2]; RT-qPCR) [nM]
1 | 1000 to 10000 | 1000 to 10000 | 1000 to 10000 | 1000 to 10000 | 1000 to 10000 | > 10000 | Cc1cc(-c2ccc3c(=O)n(N4CCN(C)CC4)cnc3c2)cc2cn(C)nc12 [Compound 175] | > 10000 | 1000 to 10000
2 | 1000 to 10000 | 1000 to 10000 | 100 to 1000 | 1000 to 10000 | 1000 to 10000 | 1000 to 10000 | Cc1cn2nc(-c3ccc4c(=O)n(C5CCN(C)CC5)cnc4c3)cc(C)c2n1 [Compound 176] | 1000 to 10000 | 100 to 1000
3 | > 10000 | > 10000 | > 10000 | > 10000 | > 10000 | > 10000 | CN1CCC(c2ccc3c(=O)n(-c4ccc5nn(C)cc5c4)cnc3c2)CC1 [Compound 177] | > 10000 | > 10000
4 | > 10000 | > 10000 | > 10000 | > 10000 | > 10000 | > 10000 | CN1CCN(c2ccc3c(=O)n(-c4ccc5cn(C)nc5c4)cnc3c2)CC1 [Compound 178] | > 10000 | > 10000
5 | > 10000 | > 10000 | > 10000 | > 10000 | > 10000 | > 10000 | Cc1cc(-c2ccc3c(=O)n(C4CC(C)(C)NC(C)(C)C4)cnc3n2)cc2cn(C)nc12 [Compound 179] | > 10000 | > 10000
6 | 100 to 1000 | 100 to 1000 | 100 to 1000 | 100 to 1000 | 100 to 1000 | < 100 | Cc1cn2nc(-c3ccc4c(=O)n(C5CCNCC5)cnc4c3)cc(C)c2n1 [Compound 181] | 100 to 1000 | 100 to 1000
7 | 1000 to 10000 | 100 to 1000 | 1000 to 10000 | 1000 to 10000 | 1000 to 10000 | < 100 | Cc1cc(-c2ccc3c(=O)n(C4CCNC5(CC5)C4)ncc3c2)cc2cn(C)nc12 (stereo not drawn) [Compound 512] | 100 to 1000 | 1000 to 10000
8 | 100 to 1000 | 100 to 1000 | 1000 to 10000 | 1000 to 10000 | 1000 to 10000 | 1000 to 10000 | Cc1nc2c(C)cc(-c3ccc4c(=O)n(C5CCNC6(CC6)C5)ncc4c3)cc2o1 (stereo not drawn) [Compound 513] | 100 to 1000 | 1000 to 10000
9 | < 100 | < 100 | < 100 | < 100 | < 100 | < 100 | COc1cc(-c2ccc3c(=O)n(C4CCNCC4)ccc3c2)nn2cc(C)nc12 [Compound 514, 6-(8-methoxy-2-methyl-imidazo[1,2-b]pyridazin-6-yl)-2-(4-piperidyl) isoquinolin-1-one; hydrochloride] | < 100 | < 100
10 | 100 to 1000 | 100 to 1000 | 1000 to 10000 | 100 to 1000 | 1000 to 10000 | 1000 to 10000 | Cc1cn2nc(-c3ccc4c(=O)n(C5CCN(CCF)CC5)ncc4c3)cc(C)c2n1 [Compound 515] | 100 to 1000 | 1000 to 10000
11 | 1000 to 10000 | 1000 to 10000 | 1000 to 10000 | 1000 to 10000 | 1000 to 10000 | 1000 to 10000 | Cc1cn2nc(-c3ccc4c(=O)n(C5CCNCC5)ccc4c3)cc(C(=O)O)c2n1 [Compound 516, 2-methyl-6-[1-oxo-2-(4-piperidyl)-6-isoquinolyl]imidazo[1,2-b]pyridazine-8-carboxylic acid] | 1000 to 10000 | 1000 to 10000
12 | 1000 to 10000 | 1000 to 10000 | 100 to 1000 | 100 to 1000 | 1000 to 10000 | 1000 to 10000 | COC(=O)c1cc(-c2ccc3c(=O)n(C4CCNCC4)ccc3c2)nn2cc(C)nc12 [Compound 517, methyl 2-methyl-6-[1-oxo-2-(4-piperidyl)-6-isoquinolyl]imidazo[1,2-b]pyridazine-8-carboxylate] | 1000 to 10000 | 100 to 1000
13 | > 10000 | > 10000 | 1000 to 10000 | > 10000 | 1000 to 10000 | 1000 to 10000 | CNC(=O)c1cc(-c2ccc3c(=O)n(C4CCNCC4)ccc3c2)nn2cc(C)nc12 [Compound 518, N, 2-dimethyl-6-[1-oxo-2-(4-piperidyl)-6-isoquinolyl]imidazo[1,2-b]pyridazine-8-carboxamide] | > 10000 | 1000 to 10000
14 | < 100 | < 100 | < 100 | < 100 | < 100 | < 100 | Cc1cn2nc(-c3ccc4c(=O)n(C5CCNCC5)ccc4c3)cc(Oc3ccccc3)c2n1 [Compound 519, 6-(2-methyl-8-phenoxy-imidazo[1,2-b]pyridazin-6-yl)-2-(4-piperidyl)isoquinolin-1-one] | < 100 | < 100
15 | 100 to 1000 | 100 to 1000 | 100 to 1000 | 100 to 1000 | 1000 to 10000 | 1000 to 10000 | Cc1cn2nc(-c3ccc4c(=O)n(C5CCNCC5)ccc4c3)cc(CC#N)c2n1 [Compound 520, 2-[2-methyl-6-[1-oxo-2-(4-piperidyl)-6-isoquinolyl]imidazo[1,2-b]pyridazin-8-yl]acetonitrile] | 100 to 1000 | 100 to 1000
16 | 1000 to 10000 | 1000 to 10000 | 1000 to 10000 | 1000 to 10000 | 1000 to 10000 | 1000 to 10000 | Cn1ccc2c(cnn2-c2ccc3c(=O)n(C4CCNCC4)ccc3c2)c1=O [Compound 521] | 1000 to 10000 | 1000 to 10000
17 | > 10000 | > 10000 | > 10000 | > 10000 | 1000 to 10000 | > 10000 | Cn1ccc2nn(-c3ccc4c(=O)n(C5CCNCC5)ccc4c3)cc2c1=O [Compound 522, 6-{5-methyl-4-oxopyrazolo[4,3-c]pyridin-2-yl}-2-(piperidin-4-yl)isoquinolin-1-one] | > 10000 | > 10000
18 | 1000 to 10000 | > 10000 | 1000 to 10000 | 1000 to 10000 | 1000 to 10000 | 1000 to 10000 | Cc1cn2nc(-c3ccc4c(=O)n(C5CCNCC5)ccc4c3)cc(C(N)=O)c2n1 [Compound 523, 2-methyl-6-[1-oxo-2-(4-piperidyl)-6-isoquinolyl]imidazo[1,2-b]pyridazine-8-carboxamide] | > 10000 | 1000 to 10000
19 | > 10000 | > 10000 | > 10000 | > 10000 | > 10000 | > 10000 | Cc1cn2nc(-c3ccc4c(=O)n(C5CCNCC5)ccc4c3)cc(C(=O)N(C)C)c2n1 [Compound 524, N, N, 2-trimethyl-6-[1-oxo-2-(4-piperidyl)-6-isoquinolyl]imidazo[1,2-b]pyridazine-8-carboxamide] | > 10000 | > 10000
20 | 100 to 1000 | < 100 | 100 to 1000 | < 100 | 100 to 1000 | 100 to 1000 | Cc1cn2nc(-c3ccc4c(=O)n(C5CCNCC5)ccc4c3)cc(CO)c2n1 [Compound 525, 6-[8-(hydroxymethyl)-2-methyl-imidazo[1,2-b]pyridazin-6-yl]-2-(4-piperidyl) isoquinolin-1-one] | < 100 | 100 to 1000
21 | 100 to 1000 | 100 to 1000 | 100 to 1000 | 100 to 1000 | 100 to 1000 | 100 to 1000 | Cc1cn2nc(-c3ccc4c(=O)n(C5CCNCC5)ccc4c3)cc(OCc3ccccc3)c2n1 [Compound 526, 6-(8-benzyloxy-2-methyl-imidazo[1,2-b]pyridazin-6-yl)-2-(4-piperidyl) isoquinolin-1-one] | 100 to 1000 | 100 to 1000
22 | 100 to 1000 | 100 to 1000 | 100 to 1000 | 100 to 1000 | 1000 to 10000 | 100 to 1000 | COC(=O)Cc1cc(-c2ccc3c(=O)n(C4CCNCC4)ccc3c2)nn2cc(C)nc12 [Compound 527] | 100 to 1000 | 100 to 1000
23 | 1000 to 10000 | 100 to 1000 | 1000 to 10000 | 1000 to 10000 | 1000 to 10000 | 100 to 1000 | Cc1cn2nc(-c3ccc4c(=O)n(C5CCNCC5)ccc4c3)cc(CC(N)=O)c2n1 [Compound 528, 2-(2-methyl-6-(1-oxo-2-(piperidin-4-yl)-1,2-dihydroisoquinolin-6-yl)imidazo[1,2-b]pyridazin-8-yl) acetamide] | 100 to 1000 | 1000 to 10000

Row | SMILES | IC50 [1, 5] [nM] | IC50 [1, 6] [nM] | IC50 [2, 7] [nM] | IC50 [2, 8] [nM] | GI50 [3] [nM] | IC50 [4] [nM] | AC50 ([1]; RT-qPCR) [nM] | AC50 ([2]; RT-qPCR) [nM]
24 | CN(c1ccc2c(=O)n(-c3ccc4nn(C)cc4c3)cnc2c1)C1CCNCC1 [Compound 180] | > 10000 | > 10000 | > 10000 | > 10000 | > 10000 | > 10000 | > 10000 | > 10000
